Reference: paper PMC3481155, “AhR activation underlies the CYP1A autoinduction by A-998679 in rats” (Frontiers in Genetics, 2012)

What was measured:
AhR = target: T1, AhR (Homo sapiens, UniProt P35869); assay: AhR nuclear translocation assay in HepG2 cells; type: cell-based; details: for AhR nuclear staining (% positive cells) 2 h: vehicle 15.6; for AhR nuclear staining (% positive cells) 24 h: vehicle 3.4
T1 construct: endogenous in cells; host or cells: HepG2
T1 sequence (P35869 11-848): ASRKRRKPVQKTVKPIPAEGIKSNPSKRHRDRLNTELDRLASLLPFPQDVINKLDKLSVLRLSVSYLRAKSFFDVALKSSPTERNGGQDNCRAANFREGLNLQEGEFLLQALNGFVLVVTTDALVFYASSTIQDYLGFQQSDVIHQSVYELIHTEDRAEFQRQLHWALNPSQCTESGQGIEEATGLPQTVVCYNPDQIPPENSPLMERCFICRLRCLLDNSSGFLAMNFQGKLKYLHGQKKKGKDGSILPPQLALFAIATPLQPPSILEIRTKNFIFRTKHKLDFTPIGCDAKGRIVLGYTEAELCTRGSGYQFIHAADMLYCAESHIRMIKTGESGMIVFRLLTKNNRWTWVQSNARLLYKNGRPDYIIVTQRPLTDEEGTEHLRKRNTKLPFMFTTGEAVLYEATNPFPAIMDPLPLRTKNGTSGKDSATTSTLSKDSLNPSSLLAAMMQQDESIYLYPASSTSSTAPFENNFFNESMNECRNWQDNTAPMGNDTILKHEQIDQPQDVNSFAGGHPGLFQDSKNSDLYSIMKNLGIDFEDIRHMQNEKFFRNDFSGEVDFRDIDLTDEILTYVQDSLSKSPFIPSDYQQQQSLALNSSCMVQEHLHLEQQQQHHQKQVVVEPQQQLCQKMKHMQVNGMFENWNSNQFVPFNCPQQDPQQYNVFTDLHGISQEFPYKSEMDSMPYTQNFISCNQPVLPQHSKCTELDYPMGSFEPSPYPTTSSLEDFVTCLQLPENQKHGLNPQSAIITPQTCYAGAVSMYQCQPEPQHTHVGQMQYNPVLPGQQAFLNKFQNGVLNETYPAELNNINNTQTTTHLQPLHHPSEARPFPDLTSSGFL
Experimental: HepG2 cells were plated in Lab-Tek II Chamber slides (Nalgene, Rochester, NY) at a seeding density of 50,000 cells/well. The cells were allowed to attach overnight and were treated for 2 h or 24 h with 10 or 40 μM A-998679, 2 μM 3-methylchloranthrene (3-MC) as a positive control, or 0.1% (v/v) DMSO vehicle. The cells were fixed in fresh 3% paraformaldehyde solution in PBS followed by a PBS wash, and were then permeabilized for 5 min using 0.2% Triton X-100 in PBS followed by another PBS wash. The cells were then incubated with blocking buffer consisting of 1% BSA/PBS solutions and immediately incubated with a 1:50 dilution of rabbit polyclonal antibody to AhR (Abcam, Cambridge, MA catalog# 63636) for 1 h at 37°C. Cells were then washed with PBS, re-blocked for 10 min, and stained with an Alexa 546 donkey anti-rabbit secondary antibody (diluted 1:200; Invitrogen Life Technologies) for 45 min at 37°C. The cells were then washed with PBS, stained with 0.5 μM Hoescht solution for 15 min, and again washed with PBS. The chamber slides were sealed and examined under the microscope. Images were acquired with a SPOT RT SE digital camera (Diagnostic Instruments, Sterling Heights, MI) mounted on a Leica (Wetzlar, Germany) DMIRE inverted florescence microscope using a 20× objective. Image acquisition was done using Metamorph® software (Molecular Devices, Sunnyvale, CA) and percent translocation of the AhR probe was quantitated using MetaXpress (Molecular Devices). Twenty microscope fields were evaluated per well (~3000–6000 cells/well).

rat Cyp 2A2 = target: T2, rat Cyp 2A2 (Rattus norvegicus, UniProt P15149); assay: Recombinant rat Cyp phenotype profiling, 2A2; type: in vitro ADME; details: 60 min
T2 construct: purchased BD Gentest; host or cells: baculovirus infected insect cells
Experimental: Identification of the drug metabolizing enzymes (DMEs) of A-998679 was studied in cDNA expressed recombinant enzymes prepared from baculovirus infected insect cells over-expressing rat Cyp isoforms (BD Gentest, Woburn, MA) as listed in Table 2. Incubations were conducted in duplicate using Supersomes. The incubation mixture contained 100 pmol/ml of enzymes, except for Cyp1a1 (200 pmol/ml), 0.1 or 0.21 μM of [^3H]A-998679 in 100 mM phosphate buffer (pH 7.4). Reactions were initiated with the addition of NADPH at a final concentration of 1 mM and incubated at 37°C for 60 min. At the end of the incubation period, the incubations were terminated by the addition of acetonitrile/ethanol (50/50, v/v) solution. Insect control samples lacking expressed enzyme were used as negative control. The degree of metabolism of A-998679 was assessed by percent of parent remaining using the radio-HPLC method described below.
Radiolabeled components from the above assays were profiled following separation by HPLC with on line radioflow detector. The system consisted of an Agilent 1100 Series quaternary pump and autosampler connected to a Packard 500TR flow scintillation detector. The data were processed using the Radiomatic™ Flo-one® software v3.65. The scintillant (Perkin Elmer FLO-SCINT™ III) flow was maintained at 3 ml/min. […]

T2 sequence (P15149 whole entry): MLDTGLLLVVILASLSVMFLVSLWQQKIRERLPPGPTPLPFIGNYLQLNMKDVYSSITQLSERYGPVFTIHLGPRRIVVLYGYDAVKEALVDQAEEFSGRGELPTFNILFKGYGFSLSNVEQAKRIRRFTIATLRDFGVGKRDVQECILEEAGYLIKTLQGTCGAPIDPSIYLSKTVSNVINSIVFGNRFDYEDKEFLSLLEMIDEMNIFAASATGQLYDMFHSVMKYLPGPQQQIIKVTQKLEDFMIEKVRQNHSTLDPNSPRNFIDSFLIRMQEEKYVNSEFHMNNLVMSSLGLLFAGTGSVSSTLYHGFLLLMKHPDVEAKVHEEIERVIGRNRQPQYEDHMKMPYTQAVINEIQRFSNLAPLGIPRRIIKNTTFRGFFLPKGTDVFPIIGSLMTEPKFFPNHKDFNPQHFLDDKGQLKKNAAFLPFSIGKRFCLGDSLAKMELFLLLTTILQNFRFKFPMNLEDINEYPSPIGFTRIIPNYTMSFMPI

With `N#Cc1cccc(-c2noc(-c3cccnc3)n2)c1` [A-998679, 3-(5-pyridin-3-yl-1,2,4-oxadiazol-3-yl) benzonitrile] the “AhR nuclear staining (% positive cells) 2 h” value (AhR; 10 μM) was 18.8 % positive cells, the “AhR nuclear staining (% positive cells) 24 h” value (AhR; 10 μM) was 4.5 % positive cells and the “AhR nuclear staining (% positive cells) 2 h” value (AhR; 40 μM) was 29.6 % positive cells. For the same compound, the “AhR nuclear staining (% positive cells) 24 h” value (AhR; 40 μM) was 6.3 % positive cells, the “% parent remaining” value (rat Cyp 2A2; recombinant rat Cyp 2A2, 0.10 μM) was 90.2% and the “% parent remaining” value (rat Cyp 2A2; recombinant rat Cyp 2A2, 0.21 μM) was 77.8%.
